Key:
[1] = system: transplanted tumor of human colon cancer HT-29 cells; assay: Human colon cancer in nude mice model; settings: HT-29 nude mice; 30 mg/kg i.g. 30 d
Experimental: (§1) Then cell concentration was adjusted to 1×10^7/ml with matrigel, then each nude mouse was inoculated subcutaneously with 0.2 ml of cells at its right armpit and recorded as the first day of inoculation. […] Each group was continuously administered intragastrically for 30 days with a dose of 20 ml/kg. The mice were sacrificed the next day after drug withdrawal and the indicators were tested. The long diameter and short diameter of the tumor, and the body weight of each mouse were recorded every 3 days from drug administration to nude mouse sacrifice.
(§2) The body weight of the nude mice and the long diameter (a) and short diameter (b) of the transplanted tumor were measured every 3 days, and the tumor volume (v), relative tumor volume (RTV) and relative tumor proliferation rate (T/C) are calculated respectively according to the following formulas, wherein V=a×b^2/2; RTV=V/V0 (V0 is the tumor volume before administration, V is the tumor volume before sacrifice), and T/C (%)=treatment group RTV/model control group RTV×100%.
(§3) Each mouse was weighed and sacrificed. After the tumor was completely stripped off from the body of the mouse, the non-tumor tissues such as blood stains and fat were removed to weigh the tumor and calculate the tumor growth inhibition rate. The average tumor weight of each group of mice is used as an indicator of efficacy. Tumor growth inhibition rate (%)=(1−the average tumor weight of the treatment group/the average tumor weight of the model group)×100%.

[2] = system: transplanted tumor of human leukemia HL-60 cells; assay: Human leukemia in nude mice model; settings: HL-60 nude mice; 30 mg/kg i.g. 30 d
Experimental: as §1, with “HL-60 cells in a logarithmic growth phase were taken and subjected to a trypan blue exclusion experiment showing that the cell viability was more than 95%, then the cells were subjected to trypsinization, centrifugation, and supernatant removal. Then” for “Then”, “matrigel, and” for “matrigel,”
as §2, §3

[3] = system: transplanted tumor of human esophageal cancer TE-1 cells; assay: Human esophageal cancer in nude mice model; settings: 30 mg/kg
Experimental: as §1, with “matrigel, and” for “matrigel,”
as §2, §3

[4] = system: transplanted tumor of mouse H22 liver cancer; assay: Inhibition of transplanted tumor of mouse H22 liver cancer
Experimental: The H22 cell strains cryopreserved in liquid nitrogen were resuscitated in Kunming mice. After 3 generations, the ascites of Kunming mice were taken and placed in a 50 ml centrifuge tube in which 10 ml of 0.9% normal saline was added, and then centrifuging was performed at 1000 rpm for 5 min at room temperature, and the obtained supernatant was removed. Then 10 ml of 0.9% normal saline was added to the tube to blow and mix well, and then the mixture was diluted to 5×10^6 live cells/ml with normal saline after counting. The tube was stored in ice water, and 75% ethanol was used to disinfect the skin under the right armpits of the mice. Each Kunming mouse was soon inoculated subcutaneously with 0.2 ml of the cells at the armpit of the right forelimb.
In the H22 liver cancer model, the mice inoculated with the tumor were randomly divided into groups with 10 mice in each group on the next day of inoculation. […] Each group was continuously administered intragastrically for 7 days with a dose of 20 ml/kg.
The tumor-bearing mice were weighed and sacrificed the next day after the last administration. The subcutaneous tumors were dissected and weighed. The average tumor weight of each group is calculated, and the tumor inhibition rate is calculated. Tumor inhibition rate=(1−T/C)×100%
T: average tumor weight of the drug-administered group; C: average tumor weight of the blank control group.

[5] = system: spleen lymphocytes (ConA, LPS stimulation); assay: Spleen lymphocyte proliferation activity of Lewis lung cancer tumor-bearing mice; type: in vivo, C57BL/6 mouse
Experimental: The serum-free RPMI 1640 medium was placed in a dish, and then the dish was placed on ice. The spleen was aseptically taken and gently ground with a sterile glass slide to prepare a single cell suspension. The single cell suspension was filtered with a double-layer sterile gauze, washed twice with serum-free RPMI 1640 medium, and centrifuged at 1,500 rpm for 5 min to remove the obtained supernatant. 2 mL of red blood cell lysate was added to the treated suspension, the mixture was allowed to stand for 2 min, and then 8 mL of RPMI 1640 medium was added, centrifuging was performed at 1,500 rpm for 5 min to remove the obtained supernatant, and then washing was performed twice with the RPMI 1640 medium. Trypan blue staining was performed to count the number of live cells, and the cell viability was more than 95%. A single cell suspension was prepared by using a RPMI 1640 medium containing 10% fetal bovine serum.
The spleen cell suspension was taken, and the cell density was adjusted to 1×10^7/mL. Each mouse was set with: A. a control well: 100 μL of RPMI 1640 medium was added; B. a concanavalin A (ConA) stimulation well: 100 μL (10 mg/L) of concanavalin A (ConA) solution was added; and C. a bacterial endotoxin (LPS) stimulating well: 100 μL (20 mg/L) of bacterial endotoxin (LPS) solution was added. The above cells were added to a 96-well plate, and then 100 μL of spleen cell suspension was added to each of the above wells. After the culture plate was transferred to a saturated humidity condition with a volume fraction of 5% CO2 at 37° C. for incubation for 72 h, 10 μL of MTT solution (5 g/L) was added to each well, and incubation was continued to be performed for 4 hours under the same conditions, then the culture was terminated. […] The Optical Density (OD) of each well was measured at 570 nm, and the lymphocyte proliferation rate was calculated. Lymphocyte proliferation rate (%)=[(T−C)/C]×100%, wherein T is the Optical Density of the stimulation well, and C is the Optical Density of the control well.

[6] = 26 mg/kg, positive drug group, n = 6

SMILES: O=P1(N(CCCl)CCCl)NCCCO1 (stereo not drawn) [Cyclophosphamide]
- Body Weight (g)(d1) [1]: 23.76 ± 01.11 g
- Body Weight (g)(d30) [1]: 21.52 ± 01.32 g
- Inhibition Rate (%) [1]: 67.38%
- Relative Tumor Proliferation Rate(T/C) [1]: 25.71%
- Relative Tumor Volume (RTV) [1]: 5.21 ± 0.70
- Tumor Volume (mm3) (d1) [1]: 156.61 ± 5.92 mm3
- Tumor Volume (mm3) (d30) [1]: 816.17 ± 21.03 mm3
- Tumor Weight [1]: 0.40 ± 0.03 g
- Body Weight (g)(d1) [2]: 22.66 ± 1.11 g
- Body Weight (g)(d30) [2]: 20.52 ± 1.73 g
- Inhibition Rate (%) [2]: 81.37%
- Relative Tumor Proliferation Rate(T/C) [2]: 58.63%
- Relative Tumor Volume (RTV) [2]: 6.76 ± 2.53
- Tumor Volume (mm3) (d1) [2]: 209.22 ± 50.12 mm3
- Tumor Volume (mm3) (d30) [2]: 1415.16 ± 320.21 mm3
- Tumor Weight [2]: 1.46 ± 0.24 g
- Relative Tumor Proliferation Rate(T/C) [3]: 52.01%
- Relative Tumor Volume (RTV) [3]: 9.05 ± 2.58
- Tumor Weight [3]: 0.66 ± 0.28 g
- Inhibition Rate (%) ([3]; by tumor weight): 72.12%
- Body Weight (g)(d1) ([3]; d1): 22.78 ± 1.35 g
- Tumor Volume (mm3) (d1) ([3]; d1): 92.02 ± 7.06 mm3
- Body Weight (g)(d30) ([3]; d30): 21.32 ± 1.63 g
- Tumor Volume (mm3) (d30) ([3]; d30): 830.30 ± 34.31 mm3
- tumour ([4]; 26 mg/kg, positive drug group): 0.53 ± 0.24 g
- Inhibition Rate (%) ([4]; 26 mg/kg, positive drug group, by tumor weight): 47.25%
- Body Weight (g)(d1) ([4]; 26 mg/kg, positive drug group, d1): 23.50 ± 1.90 g
- Body Weight (g) (d7) ([4]; 26 mg/kg, positive drug group, d7): 25.13 ± 2.69 g
- weight compared with the normal control group ([4]; H22 liver cancer mice, cyclophosphamide 26 mg/kg): slight decrease in weight
- tumor inhibition rate ([4]; Kunming mouse H22 liver cancer, cyclophosphamide 26 mg/kg i.g. 7 days): 47.25%
- B Lymphocyte Proliferation Activity (%) [5, 6]: 11.63 ± 4.68 %
- T Lymphocyte Proliferation Activity (%) [5, 6]: 13.24 ± 3.72 %
- lymphocyte activity (proliferation) ([5]; Lewis lung cancer tumor-bearing mice, cyclophosphamide, P<0.05): significantly inhibited

From patent US11077126B2 (priority 2017, dated 2021)
